Reference: publication PMC4303209, “A novel phosphatidylinositol 3-kinase (PI3K) inhibitor directs a potent FOXO-dependent, p53-independent cell cycle arrest phenotype characterized by the differential induction of a subset of FOXO-regulated genes” (Breast Cancer Research : BCR, 2014)

Test system: MCF-7 breast cancer cells
Assay: Microarray gene expression analysis (Agilent whole human genome 4 x 44K; compound vs DMSO, LIMMA log2 fold change)
Type: cell-based
Details: cell cycle genes

SMILES: Cn1ncc2c(N3CCOCC3)nc(-c3cccc(O)c3)nc21 [ETP-45658]
- TUBB3 log2FC (Gene 10381): -0.638
- ANAPC10 log2FC (Gene 10393): 0.516
- NDRG1 log2FC (Gene 10397): 1.084
- GNB2L1 log2FC (Gene 10399): -0.052
- PRMT5 log2FC (Gene 10419): -0.043
- MAD2L2 log2FC (Gene 10459): -0.088
- TACC3 log2FC (Gene 10460): -0.430
- CREB3 log2FC (Gene 10488): -0.118
- MYBBP1A log2FC (Gene 10514): -0.538
- CIB1 log2FC (Gene 10519): -0.090
- SSSCA1 log2FC (Gene 10534): -0.330
- DCTN2 log2FC (Gene 10540): 0.043
- SMC2 log2FC (Gene 10592): 0.719
- ERN2 log2FC (Gene 10595): -0.829
- USP16 log2FC (Gene 10600): 0.971
- HEXIM1 log2FC (Gene 10614): -0.354
- SPAG5 log2FC (Gene 10615): 0.309
- STAMBP log2FC (Gene 10617): 0.425
- TXNIP log2FC (Gene 10628): 2.131
- PDPN log2FC (Gene 10630): -0.069
- RGS14 log2FC (Gene 10636): 0.556
- CTCF log2FC (Gene 10664): -0.082
- CGRRF1 log2FC (Gene 10668): 0.871
- CGREF1 log2FC (Gene 10669): -0.152
- USP39 log2FC (Gene 10713): 0.041
- NUDC log2FC (Gene 10726): -0.412
- PLK4 log2FC (Gene 10733): 0.611
- STAG3 log2FC (Gene 10734): 0.527
- STAG2 log2FC (Gene 10735): 1.297
- NES log2FC (Gene 10763): -0.458
- PLK2 log2FC (Gene 10769): -0.887
- NEK6 log2FC (Gene 10783): -0.620
- SDCCAG8 log2FC (Gene 10806): 0.654
- TUBGCP2 log2FC (Gene 10844): -0.131
- LILRB1 log2FC (Gene 10859): -0.164
- USP19 log2FC (Gene 10869): 0.174
- BLCAP log2FC (Gene 10904): -0.662
- TXNL4A log2FC (Gene 10907): -0.510
- SUGT1 log2FC (Gene 10910): 0.410
- GADD45G log2FC (Gene 10912): -0.067
- EHMT2 log2FC (Gene 10919): 0.089
- BTG3 log2FC (Gene 10950): -0.035
- MAPRE2 log2FC (Gene 10982): -0.284
- KIF2C log2FC (Gene 11004): 0.489
- TLK2 log2FC (Gene 11011): 0.607
- RAB35 log2FC (Gene 11021): -0.457
- TDRKH log2FC (Gene 11022): 0.089
- PIM2 log2FC (Gene 11040): -0.863
- UBE2C log2FC (Gene 11065): -0.393
- TRIOBP log2FC (Gene 11078): 0.398
- NUPL2 log2FC (Gene 11097): 0.144
- KATNA1 log2FC (Gene 11104): 0.716
- PRDM4 log2FC (Gene 11108): 0.462
- CIT log2FC (Gene 11113): 0.376
- ZWINT log2FC (Gene 11130): -0.088
- CDC37 log2FC (Gene 11140): -0.282
- LZTS1 log2FC (Gene 11178): -0.979
- WDR6 log2FC (Gene 11180): -0.468
- RASSF1 log2FC (Gene 11186): 1.482
- CEP250 log2FC (Gene 11190): -0.206
- PMF1 log2FC (Gene 11243): -0.207
- DCTN3 log2FC (Gene 11258): 0.235
- TUSC2 log2FC (Gene 11334): -0.766
- OIP5 log2FC (Gene 11339): 0.202
- MAPRE1 log2FC (Gene 22919): -0.363
- MAPRE3 log2FC (Gene 22924): 0.034
- TRIM32 log2FC (Gene 22954): -0.374
- TPX2 log2FC (Gene 22974): 0.049
- AZI1 log2FC (Gene 22994): 0.520
- CEP152 log2FC (Gene 22995): 0.685
- USP33 log2FC (Gene 23032): 1.045
- WAPAL log2FC (Gene 23063): 0.789
- TRIM35 log2FC (Gene 23087): 0.473
- CLASP2 log2FC (Gene 23122): 0.610
- POGZ log2FC (Gene 23126): 0.396
- PHF8 log2FC (Gene 23133): -0.483
- SMC5 log2FC (Gene 23137): -0.109
- FBXL7 log2FC (Gene 23194): -0.171
- PSME4 log2FC (Gene 23198): 0.174
- RRS1 log2FC (Gene 23212): -0.840
- NUP210 log2FC (Gene 23225): -0.548
- PLCB1 log2FC (Gene 23236): 1.212
- BOP1 log2FC (Gene 23246): -0.416
- NUP160 log2FC (Gene 23279): -0.451
- FBXW11 log2FC (Gene 23291): -0.357
- UBR2 log2FC (Gene 23304): 0.788
- USP22 log2FC (Gene 23326): 0.274
- CLASP1 log2FC (Gene 23332): -0.307
- PPP1R13B log2FC (Gene 23368): 0.098
- DICER1 log2FC (Gene 23405): -0.887
- SIRT1 log2FC (Gene 23411): 1.263
- ITGB3BP log2FC (Gene 23421): 0.773
- PES1 log2FC (Gene 23481): -0.445
- ZFYVE26 log2FC (Gene 23503): 0.361
- SCRIB log2FC (Gene 23513): -0.165
- CCNDBP1 log2FC (Gene 23582): 0.710
- CD2AP log2FC (Gene 23607): 0.637
- NUP62 log2FC (Gene 23636): -0.576
- RABGAP1 log2FC (Gene 23637): 0.485
- PPP1R15A log2FC (Gene 23645): 1.011
- POLA2 log2FC (Gene 23649): -0.863
- ZNF318 log2FC (Gene 24149): 0.346
- RAD54B log2FC (Gene 25788): 0.549
- NIPBL log2FC (Gene 25836): 0.842
- INTS7 log2FC (Gene 25896): 0.076
- AHCTF1 log2FC (Gene 25909): 0.469
- SIN3A log2FC (Gene 25942): 0.788
- SH2B1 log2FC (Gene 25970): -0.484
- EGFL6 log2FC (Gene 25975): 0.028
- SENP6 log2FC (Gene 26054): 0.596
- FBXO6 log2FC (Gene 26270): 0.322
- FBXO5 log2FC (Gene 26271): 0.498
- NUPR1 log2FC (Gene 26471): 0.023
- AATF log2FC (Gene 26574): -0.362
- CKAP2 log2FC (Gene 26586): 0.829
- HBP1 log2FC (Gene 26959): 3.023
- MLH3 log2FC (Gene 27030): 0.187
- MTBP log2FC (Gene 27085): 0.847
- TJP3 log2FC (Gene 27134): 0.162
- VPS4A log2FC (Gene 27183): -0.366
- PDCD4 log2FC (Gene 27250): 1.281
- APEX2 log2FC (Gene 27301): -0.875
- UBE2S log2FC (Gene 27338): -0.678
- EML4 log2FC (Gene 27436): -0.240
- PPP2R3B log2FC (Gene 28227): -0.106
- MCTS1 log2FC (Gene 28985): -0.243
- HIPK2 log2FC (Gene 28996): -0.166
- BRD7 log2FC (Gene 29117): 0.662
- RACGAP1 log2FC (Gene 29127): 0.627
- UHRF1 log2FC (Gene 29128): -0.406
- PSMC3IP log2FC (Gene 29893): 0.342
- GPSM2 log2FC (Gene 29899): 0.274
- SAC3D1 log2FC (Gene 29901): 0.069
- RPA4 log2FC (Gene 29935): -0.445
- ANAPC4 log2FC (Gene 29945): 0.654
- SERTAD1 log2FC (Gene 29950): -1.280
- CUZD1 log2FC (Gene 50624): 0.419
- PARD6A log2FC (Gene 50855): -0.204
- GMNN log2FC (Gene 51053): 0.163
- RPS27L log2FC (Gene 51065): 0.265
- MLXIPL log2FC (Gene 51085): 0.256
- SBDS log2FC (Gene 51119): 0.607
- DYNC1LI1 log2FC (Gene 51143): 0.709
- ING4 log2FC (Gene 51147): 1.465
- TUBE1 log2FC (Gene 51175): 0.231
- LEF1 log2FC (Gene 51176): -0.842
- HERC5 log2FC (Gene 51191): 0.711
- NUSAP1 log2FC (Gene 51203): 0.849
- DUSP13 log2FC (Gene 51207): -0.060
- WAC log2FC (Gene 51322): 0.945
- DACT1 log2FC (Gene 51339): 0.045
- FZR1 log2FC (Gene 51343): -0.538
- TAOK3 log2FC (Gene 51347): 1.243
- PRKAG2 log2FC (Gene 51422): -0.498
- SNX9 log2FC (Gene 51429): 0.822
- ANAPC7 log2FC (Gene 51434): -0.070
- LCMT1 log2FC (Gene 51451): -0.115
